# Experimental data taken from patent publication US10011616B2, “Boron-containing small molecules as antiprotozoal1 agents” (MMV MEDICINES FOR MALARIA VENTURE, priority 2015, dated 2018).
# Where a name gives a salt, the structure may show the parent alone.
# Tests used:
# [1] = tested on: 3D7 strain of Plasmodium falciparum; assay: In vitro activity against 3D7 strain of Plasmodium falciparum ([3H]-hypoxanthine incorporation assay); assay type: cell-based; settings: Erythrocyte, 48 h, P. falciparum 3D7 in human erythrocytes, 2 d, growth inhibition, read-out: IC50: 1 Org. Growth P. falciparum 3D7, 2 d (LPS_00570)
# Protocol: In Vitro Activity Against Plasmodium falciparum a) Against 3D7 Strain of Plasmodium falciparum Inhibition of 3D7 strain parasites was assessed using the [^3H]-hypoxanthine incorporation assay (Desjardins, et al. Antimicrob. Agents Chemother. 1979, 16, 710-718). Briefly, parasites were cultured in human erythrocytes (from the Spanish Red Cross blood bank) using RPMI-1640 culture media (Gibco) supplemented with 0.5% Albumax II (Invitrogen), 2% D-sucrose (Sigma-Aldrich), 0.3% glutamine (Sigma-Aldrich), and 5 mM hypoxanthine (Sigma-Aldrich). Cultures were maintained at 37° C. at an atmosphere of 5% O2, 5% CO2, and […]. To assess inhibition, asynchronous parasite cultures with 0.5% parasitemia and 2% hematocrit were exposed to 3-fold serial dilutions of test compounds for 24 hours in 96 well plate cultures (Costar #3894). After 24 hours, [^3H]-hypoxanthine was added, plates were incubated for an additional 24 hours, and parasites were harvested on glass fiber filters (Wallac #1450-421) using a cell harvester 96 (TOMTEC, Perkin Elmer). Filters were dried on scintillator sheets (MeltiLex A, PerkinElmer #1450-441) to determine incorporation of [^3H]-hypoxanthine. Radioactivity was measured using a microbeta counter (Perkin Elmer). Data are normalized using the incorporation of the positive control (infected erythrocytes without drug). IC50 values were determined using Excel and Grafit 5 software. Values were determined from at least three independent experiments, and standard deviations were calculated.
# [2] = tested on: W2 strain of Plasmodium falciparum; assay: In vitro activity against W2 strain of Plasmodium falciparum (YOYO-1 flow cytometry); assay type: cell-based; settings: Erythrocyte, 48 h, P. falciparum W2 in human erythrocytes, 2 d, growth inhibition, read-out: IC50: 1 Org. Growth P. falciparum W2, 2 d (LPS_00451)
# Protocol: In Vitro Activity Against Plasmodium falciparum
# b) Against W2 Strain of Plasmodium falciparum
# W2 strain P. falciparum parasites were cultured in human erythrocytes and RPMI-1640 culture media with either 10% human serum or 0.5% Albumax serum substitute under 3% O2, 5% CO2, and 92% N2. Parasites synchronized to ring stage by treatments with 5% D-sorbitol were cultured with serial dilutions of benzoxaboroles from 5 to 10 mM stocks in 96 well microplate cultures including 200 μL of media/well, 2% hematocrit, and 1% parasitemia. At the completion of 48 h incubations, when untreated cultures contained new rings, parasites were fixed with 2% formaldehyde for 48 h, and 5 μL aliquots were transferred to another 96 well plate containing 150 μL/well of staining solution (100 mM NH4Cl, 0.1% Triton X-100, and 1 nM YOYO-1 in PBS). Parasites per erythrocyte were then determined by flow cytometry from plots of forward scatter against fluorescence (excitation 488 nm, emission 520 nm) using a FacSort flow cytometer (Beckton Dickinson) equipped with an AMS Loader (Cytek Development). All values were normalized to percent control activity, and IC50s were calculated using the Prism 3.0 program (GRAPHPAD Software). Goodness of fit was assessed by R^2 values, and meaningful dose-response curves yielded R^2 values >0.95.
smiles,measurement,setting,value
"Cc1c(Oc2cnc(C(=O)N[C@@H]3CCC[C@H]3O)cn2)ccc2c1B(O)OC2 [Example 42, 5-((1-hydroxy-7-methyl-1,3-dihydrobenzo[c][1,2]oxaborol-6-yl)oxy)-N-((1R,2R)-2-hydroxycyclopentyl)pyrazine-2-carboxamide]",IC50,[1],245 nM
same,IC50,[2],133 nM
"Cc1c(Oc2cnc(C(=O)NC(C)(C)CO)cn2)ccc2c1B(O)OC2 [Example 3, N-(1-hydroxy-2-methylpropan-2-yl)-5-(1-hydroxy-7-methyl-1,3-dihydrobenzo[c][1,2]oxaborol-6-yloxy)pyrazine-2-carboxamide]",IC50,[1],425 nM
same,IC50,[2],290 nM
"Cc1c(Oc2cnc(C(=O)N3CC(O)(C(F)(F)F)C3)cn2)ccc2c1B(O)OC2 [Example 58, (3-hydroxy-3-(trifluoromethyl)azetidin-1-yl) (5-((1-hydroxy-7-methyl-1,3-dihydrobenzo[c][1,2]oxaborol-6-yl)oxy)pyrazin-2-yl)methanone]",IC50,[1],13.9 nM
same,IC50,[2],6.6 nM
"CCC[C@H](NC(=O)c1cnc(Oc2ccc3c(c2C)B(O)OC3)cn1)C(C)(C)O [Example 44, (S)—N-(2-hydroxy-2-methylhexan-3-yl)-5-(1-hydroxy-7-methyl-1,3-dihydrobenzo[c][1,2]oxaborol-6-yloxy)pyrazine-2-carboxamide]",IC50,[1],217 nM
same,IC50,[2],129 nM
"Cc1c(Oc2cnc(C(=O)N[C@H](CO)C(C)C)cn2)ccc2c1B(O)OC2 [Example 23, (S)—N-(1-hydroxy-3-methylbutan-2-yl)-5-(1-hydroxy-7-methyl-1,3-dihydrobenzo[c][1,2]oxaborol-6-yloxy)pyrazine-2-carboxamide]",IC50,[1],1990 nM
same,IC50,[2],774 nM
"Cc1c(Oc2cnc(C(=O)N[C@@H](CO)C(C)C)cn2)ccc2c1B(O)OC2 [Example 25, (R)—N-(1-hydroxy-3-methylbutan-2-yl)-5-(1-hydroxy-7-methyl-1,3-dihydrobenzo[c][1,2]oxaborol-6-yloxy)pyrazine-2-carboxamide]",IC50,[1],466 nM
same,IC50,[2],149 nM
"Cc1c(Oc2cnc(C(=O)N[C@@H](CO)Cc3ccccc3)cn2)ccc2c1B(O)OC2 [Example 27, (R)—N-(1-hydroxy-3-phenylpropan-2-yl)-5-(1-hydroxy-7-methyl-1,3-dihydrobenzo[c][1,2]oxaborol-6-yloxy)pyrazine-2-carboxamide]",IC50,[1],505 nM
same,IC50,[2],115 nM
"CC[C@@H](NC(=O)c1cnc(Oc2ccc3c(c2C)B(O)OC3)cn1)C(C)(C)O [Example 45, (R)—N-(2-hydroxy-2-methylpentan-3-yl)-5-(1-hydroxy-7-methyl-1,3-dihydrobenzo[c][1,2]oxaborol-6-yloxy)pyrazine-2-carboxamide]",IC50,[1],222 nM
same,IC50,[2],91.8 nM
"CCCC[C@H](CO)NC(=O)c1cnc(Oc2ccc3c(c2C)B(O)OC3)cn1 [Example 28, (R)-5-(1-hydroxy-7-methyl-1,3-dihydrobenzo[c][1,2]oxaborol-6-yloxy)-N-(1-hydroxyhexan-2-yl)pyrazine-2-carboxamide]",IC50,[1],215 nM
same,IC50,[2],84.9 nM
"Cc1c(Oc2cnc(C(=O)N[C@H]3CCC[C@@H]3O)cn2)ccc2c1B(O)OC2 [Example 46, 5-(1-hydroxy-7-methyl-1,3-dihydrobenzo[c][1,2]oxaborol-6-yloxy)-N-((1S,2S)-2-hydroxycyclopentyl)pyrazine-2-carboxamide]",IC50,[1],537 nM
same,IC50,[2],149 nM
"Cc1c(Oc2cnc(C(=O)NC(C)C(C)O)cn2)ccc2c1B(O)OC2 (centres unmarked) [Example 39, 5-(1-hydroxy-7-methyl-1,3-dihydrobenzo[c][1,2]oxaborol-6-yloxy)-N-(3-hydroxybutan-2-yl)pyrazine-2-carboxamide]",IC50,[1],1460 nM
same,IC50,[2],513 nM
"CCC[C@@H](CO)NC(=O)c1cnc(Oc2ccc3c(c2C)B(O)OC3)cn1 [Example 13, (S)-5-(1-hydroxy-7-methyl-1,3-dihydrobenzo[c][1,2]oxaborol-6-yloxy)-N-(1-hydroxypentan-2-yl)pyrazine-2-carboxamide]",IC50,[1],715 nM
same,IC50,[2],297 nM
"CC[C@H](NC(=O)c1cnc(Oc2ccc3c(c2C)B(O)OC3)cn1)C(C)(C)O [Example 53, (S)—N-(2-hydroxy-2-methylpentan-3-yl)-5-(1-hydroxy-7-methyl-1,3-dihydrobenzo[c][1,2]oxaborol-6-yloxy)pyrazine-2-carboxamide]",IC50,[1],829 nM
same,IC50,[2],279 nM
"Cc1c(Oc2cnc(C(=O)N[C@H](CO)C3CC3)cn2)ccc2c1B(O)OC2 [Example 31, (S)—N-(1-cyclopropyl-2-hydroxyethyl)-5-(1-hydroxy-7-methyl-1,3-dihydrobenzo[c][1,2]oxaborol-6-yloxy)pyrazine-2-carboxamide]",IC50,[1],1090 nM
same,IC50,[2],643 nM
"Cc1c(Oc2cnc(C(=O)NC(CO)CC(C)C)cn2)ccc2c1B(O)OC2 (centres unmarked) [Example 8, N-(1-hydroxy-4-methylpentan-2-yl)-5-((1-hydroxy-7-methyl-1,3-dihydrobenzo[c][1,2]oxaborol-6-yl)oxy)pyrazine-2-carboxamide]",IC50,[1],937 nM
same,IC50,[2],930 nM
"CCC[C@H](CO)N(C)C(=O)c1cnc(Oc2ccc3c(c2C)B(O)OC3)cn1 [Example 52, (R)-5-(1-hydroxy-7-methyl-1,3-dihydrobenzo[c][1,2]oxaborol-6-yloxy)-N-(1-hydroxypentan-2-yl)-N-methylpyrazine-2-carboxamide]",IC50,[1],252 nM
same,IC50,[2],48.1 nM
"Cc1c(Oc2cnc(C(=O)N[C@@H](CO)C3CC3)cn2)ccc2c1B(O)OC2 [Example 24, (R)—N-(1-cyclopropyl-2-hydroethyl)-5-(1-hydroxy-7-methyl-1,3-dihydrobenzo[c][1,2]oxaborol-6-yloxy)pyrazine-2-carboxamide]",IC50,[1],587 nM
same,IC50,[2],492 nM
"Cc1c(Oc2cnc(C(=O)NC(CO)Cc3ccccc3)cn2)ccc2c1B(O)OC2 (centres unmarked) [Example 15, N-(1-hydroxy-3-phenylpropan-2-yl)-5-(1-hydroxy-7-methyl-1,3-dihydrobenzo[c][1,2]oxaborol-6-yloxy)pyrazine-2-carboxamide]",IC50,[1],407 nM
same,IC50,[2],297 nM
"Cc1c(Oc2cnc(C(=O)NCCO)cn2)ccc2c1B(O)OC2 [Example 1, 5-((1-hydroxy-7-methyl-1,3-dihydrobenzo[c][1,2]oxaborol-6-yl)oxy)-N-(2-hydroxyethyl)pyrazine-2-carboxamide]",IC50,[1],1080 nM
same,IC50,[2],372 nM
"Cc1c(Oc2cnc(C(=O)N3CCNC[C@H]3CO)cn2)ccc2c1B(O)OC2 [Example 50, (S)-(5-(1-hydroxy-7-methyl-1,3-dihydrobenzo[c][1,2]oxaborol-6-yloxy)pyrazin-2-yl) (2-(hydroxymethyl)piperazin-1-yl)methanone Hydrochloric Acid Salt]",IC50,[1],171 nM
same,IC50,[2],98.2 nM
"CCCC1(O)CN(C(=O)c2cnc(Oc3ccc4c(c3C)B(O)OC4)cn2)C1 [Example 56, (3-hydroxy-3-propylazetidin-1-yl) (5-((1-hydroxy-7-methyl-1,3-dihydrobenzo[c][1,2]oxaborol-6-yl)oxy)pyrazin-2-yl)methanone]",IC50,[1],137 nM
same,IC50,[2],15.9 nM
"Cc1c(Oc2cnc(C(=O)N3CCNC[C@@H]3CO)cn2)ccc2c1B(O)OC2 [Example 51, (R)-(5-(1-hydroxy-7-methyl-1,3-dihydrobenzo[c][1,2]oxaborol-6-yloxy)pyrazin-2-yl) (2-(hydroxymethyl)piperazin-1-yl)methanone Hydrochloric Acid Salt]",IC50,[1],151 nM
same,IC50,[2],103 nM
